SMILES strings stand for the structures.

The subject of one data set is A549 cells. As to the kind of experiment: Cellular proliferation/cytotoxicity assay (Alamar Blue), A549 cells. The following applies: Homo sapiens, A549, 72 h, read-out: Anti-proliferative/Cytotoxic activity (A549 cells).
Regarding `c1ccc(-c2nc(C3CCN(Cc4ccc(-c5nc6ncccn6c5-c5cccs5)cc4)CC3)n[nH]2)nc1` [Example 35, 2-(4-{[4-(5-pyridin-2-yl-1,2,4-triazol-3-yl)piperidin-1-yl]methyl}phenyl)-3-(2-thienyl)imidazo[1,2-a]pyrimidine], the IC50 was over 10 µM.

`c1ccc(-c2nc(C3CCN(Cc4ccc(-c5nc6ncccn6c5-c5ccncc5)cc4)CC3)n[nH]2)nc1` [Example 36, 3-pyridin-4-yl-2-(4-{[4-(5-pyridin-2-yl-1,2,4-triazol-3-yl)piperidin-1-yl]methyl}phenyl)imidazo[1,2-a]pyrimidine]: the IC50 is over 10 µM. Take `c1ccc(-c2c(-c3ccc(CN4CCC(c5n[nH]c(-c6ccccn6)n5)CC4)cc3)nc3cnccn23)cc1` [Example 37, 3-phenyl-2-(4-{[4-(5-pyridin-2-yl-1,2,4-triazol-3-yl)piperidin-1-yl]methyl}phenyl)imidazo[1,2-a]pyrazine]: the IC50 is over 10 µM.

`NC(=O)c1ccn2c(-c3ccccc3)c(-c3ccc(CN4CCC(c5n[nH]c(-c6ccccn6)n5)CC4)cc3)nc2c1` [Example 38, 3-phenyl-2-(4-{[4-(5-pyridin-2-yl-1,2,4-triazol-3-yl)piperidin-1-yl]methyl}phenyl)imidazo[1,2-a]pyridine-7-carboxamide]: the IC50 is over 10 µM.

As to `c1ccc(-c2nc(C3CCN(Cc4ccc(-c5nc6ncccn6c5-c5nccs5)cc4)CC3)n[nH]2)nc1` [Example 39, 2-(4-{[4-(5-pyridin-2-yl-1,2,4-triazol-3-yl)piperidin-1-yl]methyl}phenyl)-3-(1,3-thiazol-2-yl)imidazo[1,2-a]pyrimidine], the IC50 is over 10 µM. The same measure, in the same setting: the result for `Cc1nn2c(-c3ccccc3)c(-c3ccc(CN4CCC(c5nnc(-c6ccccn6)[nH]5)CC4)cc3)nc2s1` [Example 45, 2-methyl-5-phenyl-6-[4-({4-[5-(pyridin-2-yl)-4H-1,2,4-triazol-3-yl]piperidin-1-yl}methyl)phenyl]imidazo[2,1-b][1,3,4]thiadiazole] reads over 10 µM; that for `CSc1nn2c(-c3ccccc3)c(-c3ccc(CN4CCC(c5nnc(-c6ccccn6)[nH]5)CC4)cc3)nc2s1` [Example 47, 2-(methylsulfanyl)-5-phenyl-6-[4-({4-[5-(pyridin-2-yl)-4H-1,2,4-triazol-3-yl]piperidin-1-yl}methyl)phenyl]imidazo[2,1-b][1,3,4]thiadiazole], over 10 µM.

Regarding `FC(F)(F)c1nn2c(-c3ccccc3)c(-c3ccc(CN4CCC(c5nnc(-c6ccccn6)[nH]5)CC4)cc3)nc2s1` [Example 48, 5-phenyl-6-[4-({4-[5-(pyridin-2-yl)-4H-1,2,4-triazol-3-yl]piperidin-1-yl}methyl)phenyl]-2-(trifluoromethyl)imidazo[2,1-b][1,3,4]thiadiazole], the IC50 is over 10 µM. With `Cc1ccn2c(-c3ccccc3)c(-c3ccc(CN4CCC(c5nnc(-c6ccccn6)[nH]5)CC4)cc3)nc2c1` [Example 50, 7-methyl-3-phenyl-2-[4-({4-[5-(pyridin-2-yl)-4H-1,2,4-triazol-3-yl]piperidin-1-yl}methyl)phenyl]imidazo[1,2-a]pyridine], the IC50 was over 10 µM. The same measure, in the same setting: the result for `CCc1nn2c(-c3ccccc3)c(-c3ccc(CN4CCC(c5nnc(-c6ccccn6)[nH]5)CC4)cc3)nc2s1` [Example 51, 2-ethyl-5-phenyl-6-(4-{[4-(5-pyridin-2-yl-4H-1,2,4-triazol-3-yl)piperidin-1-yl]methyl}phenyl)imidazo[2,1-b][1,3,4]thiadiazole] reads under 10 µM; that for `Clc1ccn2c(-c3ccccc3)c(-c3ccc(CN4CCC(c5nnc(-c6ccccn6)[nH]5)CC4)cc3)nc2c1` [Example 54, 7-chloro-3-phenyl-2-(4-{[4-(5-pyridin-2-yl-4H-1,2,4-triazol-3-yl)piperidin-1-yl]methyl}phenyl)imidazo[1,2-a]pyridine], under 10 µM; that for `Cc1cccc(-c2nnc(C3CCN(Cc4ccc(-c5nc6ncccn6c5-c5ccccc5)cc4)CC3)[nH]2)n1` [Example 63, 2-[4-({4-[5-(6-methylpyridin-2-yl)-4H-1,2,4-triazol-3-yl]piperidin-1-yl}methyl)phenyl]-3-phenylimidazo[1,2-a]pyrimidine], over 10 µM. Turning to `Cc1cccc(-c2nnc(C3CCN(Cc4ccc(-c5nc6ccccn6c5-c5ccccc5)cc4)CC3)[nH]2)n1` [Example 64, 2-[4-({4-[5-(6-methylpyridin-2-yl)-4H-1,2,4-triazol-3-yl]piperidin-1-yl}methyl)phenyl]-3-phenylimidazo[1,2-a]pyridine], the IC50 was under 10 µM. `Cc1cccc(-c2nnc(C3CCN(Cc4ccc(-c5nc6ccc(C)nn6c5-c5ccccc5)cc4)CC3)[nH]2)n1` [Example 69, 6-methyl-2-[4-({4-[5-(6-methylpyridin-2-yl)-4H-1,2,4-triazol-3-yl]piperidin-1-yl}methyl)phenyl]-3-phenylimidazo[1,2-b]pyridazine]: the IC50 is under 10 µM.

For the compound `N#Cc1ccn2c(-c3ccccc3)c(-c3ccc(CN4CCC(c5nnc(-c6ncccn6)[nH]5)CC4)cc3)nc2c1` [Example 78, 3-phenyl-2-[4-({4-[5-(pyrimidin-2-yl)-4H-1,2,4-triazol-3-yl]piperidin-1-yl}methyl)phenyl]imidazo[1,2-a]pyridine-7-carbonitrile], the IC50 is under 10 µM.

Staying with this data set, now noted: read-out: Anti-proliferative/Cytotoxic activity (A549 cells); A549 cells, 72 h, Alamar Blue (Resazurin).
Take `N#Cc1cc2nc(-c3ccc(CN4CCC(c5nnc(-c6ccccn6)[nH]5)CC4)cc3)c(-c3ccccc3)n2cc1Br` [Example 52, ′6-bromo-3-phenyl-2-(4-{[4-(5-pyridin-2-yl-4H-1,2,4-triazol-3-yl)piperidin-1-yl]methyl}phenyl)imidazo[1,2-a]pyridine-7-carbonitrile]: the IC50 is over 10 µM. `Cc1ccc2nc(-c3ccc(CN4CCC(c5nnc(-c6ccccn6)[nH]5)CC4)cc3)c(-c3ccccc3)n2n1` [Example 53, ′6-methyl-3-phenyl-2-(4-{[4-(5-pyridin-2-yl-4H-1,2,4-triazol-3-yl)piperidin-1-yl]methyl}phenyl)imidazo[1,2-b]pyridazine]: the IC50 was under 10 µM. Still for that read-out and setting: the result for `c1ccc(-c2c(-c3ccc(CN4CCC(c5n[nH]c(-c6ccncc6)n5)CC4)cc3)nc3ncccn23)cc1` [Example 55, ′3-phenyl-2-(4-{[4-(5-pyridin-4-yl-1H-1,2,4-triazol-3-yl)piperidin-1-yl]methyl}phenyl)imidazo[1,2-a]pyrimidine] reads over 10 µM. On the same count and under the same terms, the result for `c1ccc(-c2c(-c3ccc(CN4CCC(c5nnc(-c6ccncc6)[nH]5)CC4)cc3)nc3sccn23)cc1` [Example 56, ′5-phenyl-6-(4-{[4-(5-pyridin-4-yl-4H-1,2,4-triazol-3-yl)piperidin-1-yl]methyl}phenyl)imidazo[2,1-b][1,3]thiazole] reads under 10 µM; that for `N#Cc1ccn2c(-c3ccccc3)c(-c3ccc(CN4CCC(c5nc(-c6ccncc6)n[nH]5)CC4)cc3)nc2c1` [Example 57, ′3-phenyl-2-(4-{[4-(3-pyridin-4-yl-1H-1,2,4-triazol-5-yl)piperidin-1-yl]methyl}phenyl)imidazo[1,2-a]pyridine-7-carbonitrile], under 10 µM. In the case of `c1ccc(-c2c(-c3ccc(CN4CCC(c5nnc(-c6ccncc6)[nH]5)CC4)cc3)nc3ccccn23)cc1` [Example 58, ′3-phenyl-2-(4-{[4-(5-pyridin-4-yl-4H-1,2,4-triazol-3-yl)piperidin-1-yl]methyl}phenyl)imidazo[1,2-a]pyridine], the IC50 was under 10 µM.

With `c1ccc(-c2c(-c3ccc(CN4CCC(c5nnc(-c6ccncc6)[nH]5)CC4)cc3)nc3scnn23)cc1` [Example 60, ′5-phenyl-6-(4-{[4-(5-pyridin-4-yl-4H-1,2,4-triazol-3-yl)piperidin-1-yl]methyl}phenyl)imidazo[2,1-b][1,3,4]thiadiazole], the IC50 is under 10 µM.

Regarding `Cc1cccc(-c2nnc(C3CCN(Cc4ccc(-c5nc6scnn6c5-c5ccccc5)cc4)CC3)[nH]2)n1` [Example 67, ′6-[4-({4-[5-(6-methylpyridin-2-yl)-4H-1,2,4-triazol-3-yl]piperidin-1-yl}methyl)phenyl]-5-phenylimidazo[2,1-b][1,3,4]thiadiazole], the IC50 is under 10 µM. Still for that read-out and setting: the result for `Cc1ccc(-c2nnc(C3CCN(Cc4ccc(-c5nc6ncccn6c5-c5ccccc5)cc4)CC3)[nH]2)nc1` [Example 70, ′2-[4-({4-[5-(5-methylpyridin-2-yl)-4H-1,2,4-triazol-3-yl]piperidin-1-yl}methyl)phenyl]-3-phenylimidazo[1,2-a]pyrimidine] reads under 10 µM; that for `Cc1ccc(-c2nnc(C3CCN(Cc4ccc(-c5nc6cc(C#N)ccn6c5-c5ccccc5)cc4)CC3)[nH]2)nc1` [Example 72, ′2-[4-({4-[5-(5-methylpyridin-2-yl)-4H-1,2,4-triazol-3-yl]piperidin-1-yl}methyl)phenyl]-3-phenylimidazo[1,2-a]pyridine-7-carbonitrile], under 10 µM; that for `Cc1ccc(-c2nnc(C3CCN(Cc4ccc(-c5nc6sccn6c5-c5ccccc5)cc4)CC3)[nH]2)nc1` [Example 73, ′6-[4-({4-[5-(5-methylpyridin-2-yl)-4H-1,2,4-triazol-3-yl]piperidin-1-yl}methyl)phenyl]-5-phenylimidazo[2,1-b][1,3]thiazole], under 10 µM. In the case of `Cc1ccc(-c2nnc(C3CCN(Cc4ccc(-c5nc6scnn6c5-c5ccccc5)cc4)CC3)[nH]2)nc1` [Example 74, ′6-[4-({4-[5-(5-methylpyridin-2-yl)-4H-1,2,4-triazol-3-yl]piperidin-1-yl}methyl)phenyl]-5-phenylimidazo[2,1-b][1,3,4]thiadiazole], the IC50 was under 10 µM.

With `N#Cc1cccn2c(-c3ccccc3)c(-c3ccc(CN4CCC(c5n[nH]c(-c6ccc(Cl)cn6)n5)CC4)cc3)nc12` [Example 75, ′2-[4-({4-[5-(5-chloropyridin-2-yl)-1H-1,2,4-triazol-3-yl]piperidin-1-yl}methyl)phenyl]-3-phenylimidazo[1,2-a]pyridine-8-carbonitrile], the IC50 is over 10 µM. Same read-out and setting: the result for `Clc1ccc(-c2nnc(C3CCN(Cc4ccc(-c5nc6ncccn6c5-c5ccccc5)cc4)CC3)[nH]2)nc1` [Example 76, ′2-[4-({4-[5-(5-chloropyridin-2-yl)-4H-1,2,4-triazol-3-yl]piperidin-1-yl}methyl)phenyl]-3-phenylimidazo[1,2-a]pyrimidine] reads under 10 µM.

Source of the values: patent publication US9387204B2, “Fused bicyclic imidazoles” (BAYER INTELLECTUAL PROPERTY GmbH, priority 2007, dated 2016).
